Test results taken from PMC9848300, “Discovery of novel enasidenib analogues targeting inhibition of mutant isocitrate dehydrogenase 2 as antileukaemic agents” (Journal of Enzyme Inhibition and Medicinal Chemistry, 2023).

Assays:
HL-60(TB) = test: NCI 60 antitumor screening (single dose / five doses); type: cell-based; conditions: Homo sapiens; HL-60(TB) (leukaemia), single dose 10 μM; read-out: Growth inhibition percentage (GI %)
K-562 = test: as above; type: cell-based; conditions: Homo sapiens, K562; K-562 (leukaemia), single dose 10 μM; read-out: Growth inhibition percentage (GI %)
HOP-92 = test: as above; type: cell-based; conditions: Homo sapiens; HOP-92 (non-small cell lung cancer), single dose 10 μM; read-out: Growth inhibition percentage (GI %)
MCF7 = test: NCI 60 antitumor screening (single dose); type: cell-based; conditions: Homo sapiens; MCF7 (breast cancer), single dose 10 μM; read-out: Growth inhibition percentage (GI %)
Summary of the method: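 Percent growth inhibition, calculated as 100 minus percent growth (G%) of treated cells, following a single 10 μM exposure in the NCI 60 human cancer cell screen; triplicate runs.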

SF-268 = test: NCI 60 antitumor screening (single dose); type: cell-based; conditions: Homo sapiens; SF-268 (CNS cancer), single dose 10 μM; read-out: Growth inhibition percentage (GI %)
Summary of the method: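 Under the NCI Drug Evaluation Branch protocol, each compound is screened at one 10 μM concentration on the 60-line human tumour panel. Growth of treated cells is expressed as G%, and inhibition is reported as 100 − G%.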

COLO 205 = test: NCI 60 antitumor screening (single dose / five doses); type: cell-based; conditions: Homo sapiens; COLO 205 (colon cancer), single dose 10 μM; read-out: Growth inhibition percentage (GI %)
HCT-116 = test: as above; type: cell-based; conditions: Homo sapiens; HCT-116 (colon cancer), single dose 10 μM; read-out: Growth inhibition percentage (GI %)
HCT-15 = test: as above; type: cell-based; conditions: Homo sapiens; HCT-15 (colon cancer), single dose 10 μM; read-out: Growth inhibition percentage (GI %)
HT29 = test: as above; type: cell-based, human; conditions: Homo sapiens, HT-29; HT29 (colon cancer), single dose 10 μM; read-out: Growth inhibition percentage (GI %)
SF-539 = test: as above; type: cell-based; conditions: Homo sapiens; SF-539 (CNS cancer), single dose 10 μM; read-out: Growth inhibition percentage (GI %)
SNB-75 = test: as above; type: cell-based; conditions: Homo sapiens; SNB-75 (CNS cancer), single dose 10 μM; read-out: Growth inhibition percentage (GI %)
LOX IMVI = test: as above; type: cell-based; conditions: Homo sapiens; LOX IMVI (melanoma), single dose 10 μM; read-out: Growth inhibition percentage (GI %)
MDA-MB-435 = test: as above; type: cell-based; conditions: Homo sapiens; MDA-MB-435 (melanoma), single dose 10 μM; read-out: Growth inhibition percentage (GI %)
SK-MEL-2 = test: as above; type: cell-based; conditions: Homo sapiens; SK-MEL-2 (melanoma), single dose 10 μM; read-out: Growth inhibition percentage (GI %)
SK-MEL-28 = test: as above; type: cell-based; conditions: Homo sapiens; SK-MEL-28 (melanoma), single dose 10 μM; read-out: Growth inhibition percentage (GI %)
UACC-257 = test: as above; type: cell-based; conditions: Homo sapiens; UACC-257 (melanoma), single dose 10 μM; read-out: Growth inhibition percentage (GI %)
UACC-62 = test: as above; type: cell-based; conditions: Homo sapiens; UACC-62 (melanoma), single dose 10 μM; read-out: Growth inhibition percentage (GI %)
IGROV1 = test: as above; type: cell-based; conditions: Homo sapiens, IGROV-1; IGROV1 (ovarian cancer), single dose 10 μM; read-out: Growth inhibition percentage (GI %)
786-0 = test: as above; type: cell-based; conditions: Homo sapiens, 786-0, 786-0 (renal cancer), single dose 10 μM; read-out: Growth inhibition percentage (GI %)
ACHN = test: as above; type: cell-based; conditions: Homo sapiens; ACHN (renal cancer), single dose 10 μM; read-out: Growth inhibition percentage (GI %)
RXF 393 = test: as above; type: cell-based; conditions: Homo sapiens; RXF 393 (renal cancer), single dose 10 μM; read-out: Growth inhibition percentage (GI %)
SN 12C = test: as above; type: cell-based; conditions: Homo sapiens, SN12C; SN 12C (renal cancer), single dose 10 μM; read-out: Growth inhibition percentage (GI %)
UO-31 = test: as above; type: cell-based; conditions: Homo sapiens; UO-31 (renal cancer), single dose 10 μM; read-out: Growth inhibition percentage (GI %)
DU-145 = test: as above; type: cell-based; conditions: Homo sapiens; DU-145 (prostate cancer), single dose 10 μM; read-out: Growth inhibition percentage (GI %)
MDA-MB-231/ATCC = test: as above; type: cell-based; conditions: Homo sapiens; MDA-MB-231/ATCC (breast cancer), single dose 10 μM; read-out: Growth inhibition percentage (GI %)
BT-549 = test: as above; type: cell-based; conditions: Homo sapiens; BT-549 (breast cancer), single dose 10 μM; read-out: Growth inhibition percentage (GI %)
T-47D = test: as above; type: cell-based; conditions: Homo sapiens, T47D; T-47D (breast cancer), single dose 10 μM; read-out: Growth inhibition percentage (GI %)
[1] = test system: 60 human subpanel cancer cell lines; test: NCI 60 antitumor screening, mean over the panel (single dose); type: cell-based; conditions: mean over 60 cancer cell lines, single dose 10 μM
Protocol: Initially, the anticancer effects of target compounds have been assessed at a single (10 μM) dose. The obtained data have been reported as mean-graph of the percent growth (G%) of the treated cancer cells. Percentage growth inhibition (GI%) is calculated (100 − G%) and pronounced in Table 1. […] Target compounds in series (III) with manipulated linkers disclosed lower potency. Superiorly, eight s-triazine derivatives from the three series (6a, 6c, 6d, 7a, 7g, 7i, 7l, and 8b) have shown potent broad-spectrum anticancer activity against most the examined cell lines, whereas most of the remaining triazine derivatives, 20 derivatives, have exerted selective anti-proliferative actions towards certain cancer cell lines (Supplementary).
The antitumor screening was performed for 60 human cancer cell lines under the protocol of NCI (www.dtp.nci.nih.gov), the Drug Evaluation Branch, Bethesda, MD. All submitted compounds were nominated based on the degree of structural diversity and computer modelling techniques for evaluation of their anticancer activity. The screening process for antineoplastic activity passes through two successive levels, starting with the assessment of target compounds at a single dose of 10 μM against 60 cancer cell lines on nine types of human tumours. These experiments were done on a triplicate following. The output from the single‐dose screening was covered as a mean graph, and then, analysed by the COMPARE program. Finally, the compounds which disclosed subpanel cancer cell growth (G %) equal to or less than 10% in at least eight cancer cell lines get to pass the assessment against the 60 cell lines at five doses (0.01–100 μM). By using GraphPad Prism version 9.0 (Graphpad Software Inc., La Jolla, CA), GI50, TGI, as well as LC50 dose‐response parameters were computed and presented for each compound (Supplementary information)[55–57].

A498 = test: NCI 60 antitumor screening (single dose / five doses); type: cell-based; conditions: Homo sapiens; A498 (renal cancer), single dose 10 μM; read-out: Growth inhibition percentage (GI %)

| SMILES | inhibition at 10 µM (HL-60(TB)) [%] | inhibition at 10 µM (K-562) [%] | inhibition at 10 µM (HOP-92) [%] | inhibition at 10 µM (MCF7) [%] | inhibition at 10 µM (SF-268) [%] | inhibition at 10 µM (COLO 205) [%] | inhibition at 10 µM (HCT-116) [%] | inhibition at 10 µM (HCT-15) [%] | inhibition at 10 µM (HT29) [%] | inhibition at 10 µM (SF-539) [%] | inhibition at 10 µM (SNB-75) [%] | inhibition at 10 µM (LOX IMVI) [%] | inhibition at 10 µM (MDA-MB-435) [%] | inhibition at 10 µM (SK-MEL-2) [%] | inhibition at 10 µM (SK-MEL-28) [%] | inhibition at 10 µM (UACC-257) [%] | inhibition at 10 µM (UACC-62) [%] | inhibition at 10 µM (IGROV1) [%] | inhibition at 10 µM (786-0) [%] | inhibition at 10 µM (ACHN) [%] | further results |
| --- | --- | --- | --- | --- | --- | --- | --- | --- | --- | --- | --- | --- | --- | --- | --- | --- | --- | --- | --- | --- | --- |
| C(=N\Nc1nc(N/N=C/c2ccc3c(c2)OCO3)nc(N2CCOCC2)n1)/c1ccc2c(c1)OCO2 [compound 6k, 2,4-Bis[(E)-2-(2H-1,3-Benzodioxol-5-ylmethylidene)hydrazin-1-yl]-6-(morpholin-4-yl)-1,3,5-triazine] | 61.1 | 45.6 | 8.47 | 30.9 | 8.94 | 40.7 | 37.1 | 41.5 | 51.7 | 18.2 | 13.4 | 30.1 | 4.07 | 1.68 | 12.8 | -2.23 | -4.28 | 24.3 | 36.6 | 24.7 | inhibition at 10 µM (RXF 393): 30.5%; inhibition at 10 µM (SN 12C): 24.1%; inhibition at 10 µM (UO-31): 46.4%; inhibition at 10 µM (DU-145): 23.9%; inhibition at 10 µM (MDA-MB-231/ATCC): 0.11%; inhibition at 10 µM (BT-549): 5.57%; inhibition at 10 µM (T-47D): 23.8%; Mean GI % [1]: 20.69% |
| Oc1ccccc1/C=N/Nc1nc(N/N=C/c2ccccc2O)nc(N2CCCCC2)n1 [compound 7a, 2-[(1e)-(2-{4-[(E)-2-[(2-Hydroxyphenyl)methylidene]hydrazin-1-yl]-6-(piperidin-1-yl)-1,3,5-triazin-2-yl}hydrazin-1-ylidene)methyl] phenol] | 52.6 | 61.8 | 21.6 | 64.3 | 45.7 | 75.5 | 22 | 22.6 | 54.7 | 40.6 | 25.6 | 60.3 | 30.9 | 30.8 | 36.6 | 20.9 | 29.7 | 54.8 | 26.8 | 63.1 | inhibition at 10 µM (A498): 17%; inhibition at 10 µM (RXF 393): 17%; inhibition at 10 µM (SN 12C): 40.5%; inhibition at 10 µM (UO-31): 51.7%; inhibition at 10 µM (DU-145): 45.2%; inhibition at 10 µM (MDA-MB-231/ATCC): 34.5%; inhibition at 10 µM (T-47D): 51.8%; Mean GI % [1]: 45.09% |
| Brc1ccccc1/C=N/Nc1nc(N/N=C/c2ccccc2Br)nc(N2CCCCC2)n1 [compound 7b, 2,4-Bis[(E)-2-[(2-Bromophenyl)methylidene]hydrazin-1-yl]-6-(piperidin-1-yl)-1,3,5-triazine] | -3.87 | 4.67 | -33 | 13.2 | -1.64 | -5.18 | -2.25 | 1.2 | -1.89 | 2.62 | -2.35 | 1.94 | -1.23 | -1.28 | -0.81 | -8.22 | 12.2 | 2.38 | 1.09 | 4.56 | inhibition at 10 µM (RXF 393): 2.13%; inhibition at 10 µM (SN 12C): 5.69%; inhibition at 10 µM (UO-31): 7.3%; inhibition at 10 µM (DU-145): -4.47%; inhibition at 10 µM (MDA-MB-231/ATCC): 2.05%; inhibition at 10 µM (BT-549): -5.26%; inhibition at 10 µM (T-47D): 11.2%; Mean GI % [1]: −0.12% |
